The text below walks through data of PMC5218480 (PLoS ONE, 2017).

The test system of this test is MV-4-11 cells. The test is described as follows: Gene expression microarray analysis (Affymetrix PrimeView) and GSEA. The class given is cell-based, human. The arrangement: RFU PODN (11730768_x_at) / Fold change /veh PODN (11730768_x_at) / RFU LINC00158 (11744669_a_at) / Fold change /veh LINC00158 (11744669_a_at) / RFU DUSP10 (11751237_a_at) / Fold change /veh DUSP10 (11751237_a_at) / RFU ID3 (11757404_x_at) / Fold change /veh ID3 (11757404_x_at) / RFU PLEKHG5 (11737974_s_at) / Fold change /veh PLEKHG5 (11737974_s_at) / RFU LRRC4B (11730491_at) / Fold change /veh LRRC4B (11730491_at) / RFU GIMAP4 (11747438_a_at) / Fold change /veh GIMAP4 (11747438_a_at) / RFU KRT8 (11758183_x_at) / Fold change /veh KRT8 (11758183_x_at) / RFU CNN1 (11734310_a_at) / Fold change /veh CNN1 (11734310_a_at) / RFU VPS37D (11726825_at) / Fold change /veh VPS37D (11726825_at) / RFU C10orf10 (11716522_x_at) / Fold change /veh C10orf10 (11716522_x_at) / RFU KIR2DL2 /// KIR2DL4 /// KIR2DL5A /// KIR2DL5B /// KIR2DS1 /// KIR2DS2 /// KIR2DS3 /// KIR2DS4 /// KIR3DL3 /// KIR3DL3 /// KIR3DS1 (11738374_at) / Fold change /veh KIR2DL2 /// KIR2DL4 /// KIR2DL5A /// KIR2DL5B /// KIR2DS1 /// KIR2DS2 /// KIR2DS3 /// KIR2DS4 /// KIR3DL3 /// KIR3DL3 /// KIR3DS1 (11738374_at) / RFU C1QL1 (11718748_at) / Fold change /veh C1QL1 (11718748_at) / RFU TMPRSS4 (11747572_a_at) / Fold change /veh TMPRSS4 (11747572_a_at) / RFU HAMP (11756126_x_at) / Fold change /veh HAMP (11756126_x_at) / RFU RNFT2 (11725882_a_at) / Fold change /veh RNFT2 (11725882_a_at) / RFU NR4A2 (11747474_a_at) / Fold change /veh NR4A2 (11747474_a_at) / RFU ABCC12 (11746883_a_at) / Fold change /veh ABCC12 (11746883_a_at) / RFU TMEM136 (11760407_x_at) / Fold change /veh TMEM136 (11760407_x_at) / RFU CLDN22 /// WWC2 (11732394_at) / Fold change /veh CLDN22 /// WWC2 (11732394_at) / RFU HLA-DPB1 (11760878_x_at) / Fold change /veh HLA-DPB1 (11760878_x_at) / RFU SPINT1 (11716480_a_at) / Fold change /veh SPINT1 (11716480_a_at) / RFU GAP43 (11754022_s_at) / Fold change /veh GAP43 (11754022_s_at) / RFU A4GNT (11735810_at) / Fold change /veh A4GNT (11735810_at) / RFU PRB3 (11715151_x_at) / Fold change /veh PRB3 (11715151_x_at) / RFU TUBB4B (11761932_at) / Fold change /veh TUBB4B (11761932_at) / RFU CAPN14 (11732068_a_at) / Fold change /veh CAPN14 (11732068_a_at) / RFU TMCC2 (11721928_a_at) / Fold change /veh TMCC2 (11721928_a_at) / RFU IRGQ (11745062_a_at) / Fold change /veh IRGQ (11745062_a_at) / RFU FAM174B (11720279_a_at) / Fold change /veh FAM174B (11720279_a_at) / RFU TMPRSS4 (11748680_a_at) / Fold change /veh TMPRSS4 (11748680_a_at) / RFU FAM212B (11763350_a_at) / Fold change /veh FAM212B (11763350_a_at) / RFU PLEKHG5 (11743358_a_at) / Fold change /veh PLEKHG5 (11743358_a_at) / RFU ZSCAN30 (11745921_a_at) / Fold change /veh ZSCAN30 (11745921_a_at) / RFU CMKLR1 (11741424_a_at) / Fold change /veh CMKLR1 (11741424_a_at) / RFU LOC101060620 /// MAPK8IP1 (11723275_at) / Fold change /veh LOC101060620 /// MAPK8IP1 (11723275_at) / RFU SPTSSB (11747773_x_at) / Fold change /veh SPTSSB (11747773_x_at) / RFU PRSS12 (11739890_at) / Fold change /veh PRSS12 (11739890_at) / RFU BIN1 (11741810_x_at) / Fold change /veh BIN1 (11741810_x_at) / RFU WNT11 (11732464_a_at) / Fold change /veh WNT11 (11732464_a_at) / RFU C10orf10 (11716521_a_at) / Fold change /veh C10orf10 (11716521_a_at) / RFU C5orf56 (11738089_at) / Fold change /veh C5orf56 (11738089_at) / RFU CYB561 (11721691_x_at) / Fold change /veh CYB561 (11721691_x_at) / RFU ANKRD19P (11752326_a_at) / Fold change /veh ANKRD19P (11752326_a_at) / RFU OR2T12 /// OR2T33 /// OR2T8 (11738714_s_at) / Fold change /veh OR2T12 /// OR2T33 /// OR2T8 (11738714_s_at) / RFU VCAN (11748164_a_at) / Fold change /veh VCAN (11748164_a_at) / RFU JSRP1 (11732532_at) / Fold change /veh JSRP1 (11732532_at) / RFU KRTAP10-11 (11738290_x_at) / Fold change /veh KRTAP10-11 (11738290_x_at) / RFU MYO3A (11730013_a_at) / Fold change /veh MYO3A (11730013_a_at) / RFU EBF3 (11725865_a_at) / Fold change /veh EBF3 (11725865_a_at) / RFU CAMK2N1 (11719241_x_at) / Fold change /veh CAMK2N1 (11719241_x_at) / RFU C5orf56 (11738088_a_at) / Fold change /veh C5orf56 (11738088_a_at) / RFU OLFML3 (11715873_a_at) / Fold change /veh OLFML3 (11715873_a_at) / RFU LOC100653217 /// NTM (11731650_a_at) / Fold change /veh LOC100653217 /// NTM (11731650_a_at) / RFU MAPK11 (11762145_a_at) / Fold change /veh MAPK11 (11762145_a_at) / RFU FIZ1 (11724087_x_at) / Fold change /veh FIZ1 (11724087_x_at) / RFU OASL (11726364_x_at) / Fold change /veh OASL (11726364_x_at) / RFU SOX15 (11748057_x_at) / Fold change /veh SOX15 (11748057_x_at) / RFU CD79A (11719716_a_at) / Fold change /veh CD79A (11719716_a_at) / RFU HIST1H1D (11736915_at) / Fold change /veh HIST1H1D (11736915_at) / RFU CASKIN2 (11723855_a_at) / Fold change /veh CASKIN2 (11723855_a_at) / RFU LOC730098 (11760151_x_at) / Fold change /veh LOC730098 (11760151_x_at) / RFU OR4N2 (11742367_at) / Fold change /veh OR4N2 (11742367_at) / RFU PRRT2 (11749266_a_at) / Fold change /veh PRRT2 (11749266_a_at) / RFU SNX32 (11753110_a_at) / Fold change /veh SNX32 (11753110_a_at) / RFU CDHR5 (11726645_a_at) / Fold change /veh CDHR5 (11726645_a_at) / RFU RCAN1 (11760418_a_at) / Fold change /veh RCAN1 (11760418_a_at) / RFU FAM167A (11723789_a_at) / Fold change /veh FAM167A (11723789_a_at) / RFU FAM26E (11764081_at) / Fold change /veh FAM26E (11764081_at) / RFU ISYNA1 (11749810_s_at) / Fold change /veh ISYNA1 (11749810_s_at) / RFU ACY1 (11761880_at) / Fold change /veh ACY1 (11761880_at) / RFU 11764098_at / Fold change /veh 11764098_at / RFU SAMD14 (11745864_x_at) / Fold change /veh SAMD14 (11745864_x_at) / RFU NPB (11741838_a_at) / Fold change /veh NPB (11741838_a_at) / RFU TMPRSS6 (11731388_a_at) / Fold change /veh TMPRSS6 (11731388_a_at) / RFU KRTAP10-2 (11738614_at) / Fold change /veh KRTAP10-2 (11738614_at) / RFU ARHGAP8 /// PRR5-ARHGAP8 (11727945_x_at) / Fold change /veh ARHGAP8 /// PRR5-ARHGAP8 (11727945_x_at) / RFU KRTAP5-7 /// NADSYN1 (11734609_at) / Fold change /veh KRTAP5-7 /// NADSYN1 (11734609_at) / RFU RASL12 (11751679_a_at) / Fold change /veh RASL12 (11751679_a_at) / RFU CDKN2B (11736163_a_at) / Fold change /veh CDKN2B (11736163_a_at) / RFU PRF1 (11729649_at) / Fold change /veh PRF1 (11729649_at) / RFU, ZNF638 /// ZNF638-IT1 / Fold change vs veh, ZNF638 /// ZNF638-IT1 / RFU, PANK3 / Fold change vs veh, PANK3 / RFU, SH3YL1 / Fold change vs veh, SH3YL1 / RFU, ZEB2 / Fold change vs veh, ZEB2 / RFU, NRIP1 / Fold change vs veh, NRIP1 / RFU, PTTG1IP / Fold change vs veh, PTTG1IP / RFU, CAPN2 / Fold change vs veh, CAPN2 / RFU, MED14 / Fold change vs veh, MED14 / RFU, SNORA58 / Fold change vs veh, SNORA58 / RFU, C1orf63 / Fold change vs veh, C1orf63 / RFU, LRRFIP1 / Fold change vs veh, LRRFIP1 / RFU, NDUFAF7 / Fold change vs veh, NDUFAF7 / RFU, SLC12A2 / Fold change vs veh, SLC12A2 / RFU, IBTK / Fold change vs veh, IBTK / RFU, ESF1 / Fold change vs veh, ESF1 / Fold change vs veh, TMEM50B / RFU, TAOK1 / Fold change vs veh, TAOK1 / RFU, ACBD3 / Fold change vs veh, ACBD3 / RFU, TMA16 / Fold change vs veh, TMA16 / RFU, RWDD3 / Fold change vs veh, RWDD3 / RFU, BCAT1 / Fold change vs veh, BCAT1 / RFU, EDEM3 / Fold change vs veh, EDEM3 / RFU, TMEM33 / Fold change vs veh, TMEM33 / RFU, WDR75 / Fold change vs veh, WDR75 / RFU, AHCTF1 / Fold change vs veh, AHCTF1 / RFU, TFRC / Fold change vs veh, TFRC / RFU, ZDHHC17 / Fold change vs veh, ZDHHC17 / RFU, NOM1 / Fold change vs veh, NOM1 / RFU, ARL8B / Fold change vs veh, ARL8B / RFU, ZBTB11 / Fold change vs veh, ZBTB11 / RFU, TAMM41 / Fold change vs veh, TAMM41 / RFU, KIAA1704 /// LOC100996395 / Fold change vs veh, KIAA1704 /// LOC100996395 / RFU, ING1 / Fold change vs veh, ING1 / RFU, TRMT61B / Fold change vs veh, TRMT61B / RFU, FUBP3 / Fold change vs veh, FUBP3 / RFU, TP53 / Fold change vs veh, TP53 / RFU, TNKS2 / Fold change vs veh, TNKS2 / RFU, ZFP14 / Fold change vs veh, ZFP14 / RFU, ACTR2 / Fold change vs veh, ACTR2 / RFU, PPP3R1 / Fold change vs veh, PPP3R1 / RFU, PIK3R1 / Fold change vs veh, PIK3R1 / RFU, HNRNPA1 / Fold change vs veh, HNRNPA1 / RFU, RNF170 / Fold change vs veh, RNF170 / RFU, ZNF28 / Fold change vs veh, ZNF28 / RFU, RNGTT / Fold change vs veh, RNGTT / RFU, OGT / Fold change vs veh, OGT / RFU, BRD1 / Fold change vs veh, BRD1 / RFU, MARS / Fold change vs veh, MARS / RFU, ZNF655 / Fold change vs veh, ZNF655 / RFU, FAHD1 / Fold change vs veh, FAHD1 / RFU, BDP1 / Fold change vs veh, BDP1 / RFU, LRRCC1 / Fold change vs veh, LRRCC1 / RFU, ARID1A / Fold change vs veh, ARID1A / RFU, ZNF146 / Fold change vs veh, ZNF146 / RFU, ZNF330 / Fold change vs veh, ZNF330 / RFU, GPN3 / Fold change vs veh, GPN3 / RFU, C9orf123 / Fold change vs veh, C9orf123 / RFU, N4BP2L2 / Fold change vs veh, N4BP2L2 / RFU, ARFIP1 / Fold change vs veh, ARFIP1 / RFU, FAM179B / Fold change vs veh, FAM179B / RFU, BCL10 / Fold change vs veh, BCL10 / RFU, UHRF1BP1L / Fold change vs veh, UHRF1BP1L / RFU, BET1 / Fold change vs veh, BET1 / RFU, CNOT2 / Fold change vs veh, CNOT2 / RFU, ZNF268 / Fold change vs veh, ZNF268 / Fold change vs veh, ZNF507 / RFU, DGCR2 / Fold change vs veh, DGCR2 / RFU, WDSUB1 / Fold change vs veh, WDSUB1 / Fold change vs veh, HSP90B1 /// MIR3652 / RFU, ADSS / Fold change vs veh, ADSS / RFU, GK / Fold change vs veh, GK / RFU, ZNF148 / Fold change vs veh, ZNF148 / RFU, TAF9 / Fold change vs veh, TAF9 / RFU, SLC1A5 / Fold change vs veh, SLC1A5 / RFU, SLMO2 / Fold change vs veh, SLMO2 / RFU, ABCC4 / Fold change vs veh, ABCC4 / RFU, LOC101060439 /// RAP1B / Fold change vs veh, LOC101060439 /// RAP1B / RFU, RFX7 / Fold change vs veh, RFX7 / RFU, GTPBP10 / Fold change vs veh, GTPBP10 / RFU, CNEP1R1 / Fold change vs veh, CNEP1R1 / RFU, BIVM-ERCC5 /// ERCC5 / Fold change vs veh, BIVM-ERCC5 /// ERCC5 / RFU, ILF3 / Fold change vs veh, ILF3 / RFU 11762660_at / Fold change /veh 11762660_at / RFU VCAN (11757783_s_at) / Fold change /veh VCAN (11757783_s_at) / RFU DDX43 (11728927_at) / Fold change /veh DDX43 (11728927_at) / RFU KRT8 (11758188_x_at) / Fold change /veh KRT8 (11758188_x_at) / RFU NKD1 (11759106_at) / Fold change /veh NKD1 (11759106_at) / RFU SRD5A1 (11742802_a_at) / Fold change /veh SRD5A1 (11742802_a_at) / RFU TPSAB1 /// TPSB2 (11721975_s_at) / Fold change /veh TPSAB1 /// TPSB2 (11721975_s_at) / RFU GSTM3 (11746129_a_at) / Fold change /veh GSTM3 (11746129_a_at) / RFU IL23R (11737362_x_at) / Fold change /veh IL23R (11737362_x_at) / RFU TMEM51 (11727254_a_at) / Fold change /veh TMEM51 (11727254_a_at) / RFU PIWIL2 (11732686_x_at) / Fold change /veh PIWIL2 (11732686_x_at) / RFU ORM1 (11744905_x_at) / Fold change /veh ORM1 (11744905_x_at) / RFU CCDC152 (11743942_at) / Fold change /veh CCDC152 (11743942_at) / RFU ECM1 (11717891_a_at) / Fold change /veh ECM1 (11717891_a_at) / RFU IL23R (11748794_a_at) / Fold change /veh IL23R (11748794_a_at) / RFU TNFAIP8L3 (11732012_x_at) / Fold change /veh TNFAIP8L3 (11732012_x_at) / RFU MBOAT4 (11741988_at) / Fold change /veh MBOAT4 (11741988_at) / RFU 11764193_at / Fold change /veh 11764193_at / RFU TMEM53 (11763286_at) / Fold change /veh TMEM53 (11763286_at) / RFU MAGEB2 (11727129_at) / Fold change /veh MAGEB2 (11727129_at) / RFU TMEM200A (11744735_a_at) / Fold change /veh TMEM200A (11744735_a_at) / RFU CCDC152 (11751479_a_at) / Fold change /veh CCDC152 (11751479_a_at) / RFU FAM211A (11726209_a_at) / Fold change /veh FAM211A (11726209_a_at) / RFU RGS16 (11746705_a_at) / Fold change /veh RGS16 (11746705_a_at) / RFU VCAN (11755009_s_at) / Fold change /veh VCAN (11755009_s_at) / RFU RHOB (11743442_s_at) / Fold change /veh RHOB (11743442_s_at) / RFU RGS16 (11720943_a_at) / Fold change /veh RGS16 (11720943_a_at) / RFU RGS16 (11720944_at) / Fold change /veh RGS16 (11720944_at) / RFU, VPS4B / Fold change vs veh, VPS4B / RFU, CREB1 / Fold change vs veh, CREB1 / RFU, DNAJC13 / Fold change vs veh, DNAJC13 / RFU, GNAQ / Fold change vs veh, GNAQ / RFU, CDK5R1 / Fold change vs veh, CDK5R1 / RFU, ZRANB3 / Fold change vs veh, ZRANB3 / RFU, CUL4A / Fold change vs veh, CUL4A / RFU, CCNY / Fold change vs veh, CCNY / RFU, UFL1 / Fold change vs veh, UFL1 / RFU, COG3 / Fold change vs veh, COG3 / RFU, DIAPH2 / Fold change vs veh, DIAPH2 / RFU, SKA2 / Fold change vs veh, SKA2 / RFU, AFF3 / Fold change vs veh, AFF3 / RFU, LMF1 / Fold change vs veh, LMF1 / RFU, IPO11 / Fold change vs veh, IPO11 / RFU, DFFB / Fold change vs veh, DFFB / RFU, FOXP1 / Fold change vs veh, FOXP1 / RFU, CARD8 / Fold change vs veh, CARD8 / RFU, STRN3 / Fold change vs veh, STRN3 / RFU, ADK / Fold change vs veh, ADK / RFU, RASSF2 / Fold change vs veh, RASSF2 / RFU, WIPF1 / Fold change vs veh, WIPF1 / RFU, LARP1B / Fold change vs veh, LARP1B / RFU, RASA1 / Fold change vs veh, RASA1 / RFU, RB1 / Fold change vs veh, RB1 / RFU, PPFIA1 / Fold change vs veh, PPFIA1 / RFU, MAT2A / Fold change vs veh, MAT2A / RFU, CCT5 / Fold change vs veh, CCT5 / RFU, WDR92 / Fold change vs veh, WDR92 / RFU, CUX1 / Fold change vs veh, CUX1 / RFU, TTC7A / Fold change vs veh, TTC7A / RFU, TMEM135 / Fold change vs veh, TMEM135 / RFU, DEPTOR / Fold change vs veh, DEPTOR / RFU, CPM / Fold change vs veh, CPM / RFU, DNAJB6 / Fold change vs veh, DNAJB6 / RFU, CACNA2D3 / Fold change vs veh, CACNA2D3 / RFU, DTX4 / Fold change vs veh, DTX4 / RFU, TFCP2 / Fold change vs veh, TFCP2 / RFU, GMCL1 /// GMCL1P1 / Fold change vs veh, GMCL1 /// GMCL1P1 / RFU, AEBP2 / Fold change vs veh, AEBP2 / RFU, SNHG1 /// SNORD22 /// SNORD25 /// SNORD26 /// SNORD27 /// SNORD28 /// SNORD29 /// SNORD31 / Fold change vs veh, SNHG1 /// SNORD22 /// SNORD25 /// SNORD26 /// SNORD27 /// SNORD28 /// SNORD29 /// SNORD31 / Fold change (Aza/veh), C12orf56 (ProbeSet 11735607_a_at) / Fold change (ACY-1035/veh), C12orf56 (ProbeSet 11735607_a_at) / Fold change (Aza/veh), FGFR1OP (ProbeSet 11751329_s_at) / Fold change (ACY-1035/veh), FGFR1OP (ProbeSet 11751329_s_at) / Fold change (Aza/veh), VPS36 (ProbeSet 11739960_a_at) / Fold change (ACY-1035/veh), VPS36 (ProbeSet 11739960_a_at) / RFU SYPL1 (11715823_x_at) / Fold change /veh SYPL1 (11715823_x_at) / RFU IGFBP7 (11715501_s_at) / Fold change /veh IGFBP7 (11715501_s_at) / RFU REEP3 (11722064_at) / Fold change /veh REEP3 (11722064_at) / RFU IGLL1 (11728026_x_at) / Fold change /veh IGLL1 (11728026_x_at): dose or concentration left out as unconfirmed. As to conditions: MV-4-11 cells, 48 hours.

In the case of `Nc1ncn([C@@H]2O[C@H](CO)[C@@H](O)[C@H]2O)c(=O)n1` [azacitidine], the “Fold change /veh CMKLR1 (11741424_a_at)” value worked out at 1.02.
